One assay concerns the target T1, CSF-1R (Homo sapiens, UniProt P07333).
T1 construct: purchased Invitrogen PV3249
Kind of assay: CSF-1R kinase assay (HTRF kinEASE TK). It counts as biochemical. The note with it: ATP 2.5 uM, enzyme 0.012 ng/ul, read-out: In vitro inhibitory activity of CSF-1R IC50. The protocol: Example 53: CSF-1R Kinase Assay
I. Materials and Instruments
• 2104 EnVision® Multilabel Reader (PerkinElmer) • OptiPlate-384, White Opaque 384-well MicroPlate (Cat.6007290, PerkinElmer) • HTRF kinEASE TK (Cat.62TKOPEC, Cisbio) • CSF-1R(Cat. PV3249, Invitrogen) • ATP 10 mM (Cat. PV3227, Invitrogen) • DTT 1 M (Cat. D5545, Sigma) • MgCl2 1 M (Cat. M8266, Sigma) • MnCl2 1 M (Cat.244589. Sigma)
II. Experimental Procedure
Substrate-TK and ATP were diluted to 5 times of the reaction concentration by 1×Kinase Buffer. CSF1R enzyme was diluted to 5×enzyme solution by 1×kinase buffer. Sa-XL665 was diluted to 4×Sa-XL665 solution by Detection Buffer. 100×TK-Ab-Cryptate Solution TK-Ab-Cryptate was diluted to 100×TK-Ab-Cryptate solution by Detection Buffer. 2. Experimental Procedure After all reagents had been prepared according to the above method, except enzymes, the sample was added after equilibrium to room temperature. • a. Firstly, 2.5% DMSO solution was prepared by using 1×kinase buffer (the high concentration of DMSO will affect the reaction and control the final concentration of DMSO to 1%). Then the compounds were diluted by 2.5% DMSO solution corresponding to the enzyme. The screening concentration of the compounds was 4 times gradient dilution from 1000 nM, and 8 concentrations. In addition to the control pore, 4 microlitres of diluted solution containing 2.5% DMSO were added to the reaction pore and 4 microlitres of previously prepared solution containing 2.5% DMSO were added to the control pore. • b. 2 microlitres of previously prepared TK-biotin substrate solution was added to all reaction pore (the amount of substrate used for enzyme screening is shown in Table 15). • c. Adding 2 microlitres of CSF1R enzyme solution of corresponding concentration (the amount of enzyme is shown in Table 15) to all reaction pore except negative pore. The negative pore is supplemented with 2 microlitres of enzyme corresponding to 1 xkinase buffer. After mixing, the compound and enzyme can be fully combined by incubating at room temperature for 10 minutes. • d. Enzyme reaction was initiated by adding 2 microlitres ATP solution of corresponding concentration to all reaction pore. The reaction time was 30 minutes (the corresponding ATP concentration and reaction time at enzyme screening were shown in Table 15). • e. Preparing the test solution 5 minutes before the end of kinase reaction. Streptavidin-XL665 and TK antibody europium cryptate (1:100) were prepared with detection buffer in the kit (the corresponding concentration of detection reagent for enzyme screening is shown in Table 15). • f. After the kinase reaction, 5 microlitres of diluted Streptavidin-XL665 were added to all reaction pore, mixing, and then the diluted TK antibody europium cryptate solution was added immediately. • g. After 1 hour reaction at room temperature, the fluorescence signals (320 nm stimulation, 665 nm, 615 nm emission) were detected by ENVISION (Perkinelmer) instrument. The inhibition rate of each pore was calculated by full active pore and background signal pore, and the average value of complex pore was obtained. Meanwhile, the half inhibitory activity (IC50) of each compound was fitted by professional drawing analysis software PRISM 5.0. The Flow Chart of the Experiment is as Follows:
3. Data Analysis Emission Ratio (ER)=665 nm Emission signal/615 nm Emission signal Inhibitory rate=(ERpositive−ERsample)/(ERpositive−ERnegative)*100% Using Graphpad Prism 5 and log (inhibitor) vs. normalized response to fit IC50 curve and calculate IC50 value. The IC50 data of the compounds prepared in Representative Examples 3-52 are as follows (Table 18): […]
A general note: Time-resolved FRET reads energy transfer from a long-lived donor to a nearby acceptor.

Another assay concerns NFS-60 cells. Briefly: NFS-60 cell assay (CCK proliferation, M-CSF stimulated). It counts as cell-based. The conditions noted are these: Mus musculus, compound 0.5 uM, 72 h, 40 ng/mL M-CSF, read-out: inhibition ratio % (NFS-60 cell proliferation). Here is the method: Example 54: NFS-60 Cell Assay
1. Experimental Materials
Mouse Myelogenous Leukemia Cells (NFS-60)
Using DMSO to dissolve, and the required concentration was prepared with full culture medium without factors.
Penicillin-streptomycin: TRANS
Mouse M-CSF/CSF-1 Protein: Sino Biological Inc, No. 51112-MNAH
M-CSF: Qilu Pharmaceutical co., Ltd.
The logarithmic growth phase of NFS-60 cells (1640+10% FBS+40 ng/ml M-CSF+1% Penicillin-streptomycin) were centrifuged (1000 r/min) and cultured in a factor-free medium at 37° C., 5% CO2 for 24 hours. Centrifugating (1000 r/min), the culture medium was replaced by new culture medium including 40 ng/mL factors, and inoculated on 96-well plate by 2*10^4 cells/mL, 100 μL/hole. After 16 hours, the tested compounds were added 10 μL/hole, 3 duplicate holes per compound, 37° C., 5% CO2, continue to cultured for 72 h. Then 10 μL CCK reagent was added to each hole. After incubation for 4 hours, the absorbance of each hole was measured at 450 nm wavelength. According to Formula: Inhibitory rate (%)=(1-OD value of test pore/OD value of solvent control pore)×100% 3. Experimental Results The experimental results of the inhibition of NFS-60 cell proliferation by the compounds prepared in Example 3-52, 0.5 uM, are shown in the following table: […]

pIC50: −log10 of the molar value.

The pIC50 is the negative decadic logarithm of the IC50, by convention in mol/L.

T1 sequence (P07333 20-972): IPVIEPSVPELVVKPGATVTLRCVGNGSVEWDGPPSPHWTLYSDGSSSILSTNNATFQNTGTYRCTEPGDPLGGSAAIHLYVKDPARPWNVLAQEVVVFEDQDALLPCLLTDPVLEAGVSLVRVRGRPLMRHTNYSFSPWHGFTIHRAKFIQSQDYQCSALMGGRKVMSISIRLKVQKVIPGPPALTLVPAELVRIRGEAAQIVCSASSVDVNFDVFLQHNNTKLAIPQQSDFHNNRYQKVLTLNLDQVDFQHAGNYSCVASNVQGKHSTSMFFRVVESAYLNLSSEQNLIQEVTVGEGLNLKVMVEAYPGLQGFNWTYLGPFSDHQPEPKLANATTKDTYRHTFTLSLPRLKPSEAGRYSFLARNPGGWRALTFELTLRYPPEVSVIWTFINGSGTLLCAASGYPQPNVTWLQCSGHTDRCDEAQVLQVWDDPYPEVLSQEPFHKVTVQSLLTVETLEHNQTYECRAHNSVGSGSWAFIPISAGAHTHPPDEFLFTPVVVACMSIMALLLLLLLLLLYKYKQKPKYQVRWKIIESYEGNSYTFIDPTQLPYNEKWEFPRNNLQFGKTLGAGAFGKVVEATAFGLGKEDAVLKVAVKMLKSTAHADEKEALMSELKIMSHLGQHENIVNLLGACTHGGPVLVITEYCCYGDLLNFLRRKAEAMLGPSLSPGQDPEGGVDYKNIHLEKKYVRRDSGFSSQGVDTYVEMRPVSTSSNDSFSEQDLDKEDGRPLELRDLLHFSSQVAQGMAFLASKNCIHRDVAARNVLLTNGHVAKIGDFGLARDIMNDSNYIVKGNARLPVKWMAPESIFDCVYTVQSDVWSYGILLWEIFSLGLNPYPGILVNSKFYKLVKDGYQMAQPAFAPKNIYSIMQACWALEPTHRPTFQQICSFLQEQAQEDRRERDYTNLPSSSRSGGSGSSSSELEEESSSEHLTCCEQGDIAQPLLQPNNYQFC

On to `Cc1cccc(C(=O)Nc2cccc([C@H](C)Oc3cc(Cl)cnc3N)c2)c1` [Compound 54, (S)-N-(3-(1-((2-amino-5-chloropyridin-3-yl)oxy)ethyl)-phenyl)-3-methylbenzamide], for which the pIC50 on CSF-1R was ≥ 7.30. Besides, the inhibition at 0.5 µM in the assay with NFS-60 cells lay within 10 to 50%.
The like results for `COc1cccc(C(=O)Nc2cccc([C@@H](C)Oc3cc(Cl)cnc3N)c2)c1` [Compound 74, (R)-N-(3-(1-((2-amino-5-chloropyridin-3-yl)oxy)ethyl)-phenyl)-3-methoxybenzamide] were, in that order, ≥ 7.30 and ≥ 50%.
Turning to `Cc1ccc(C(=O)Nc2cccc([C@@H](C)Oc3cc(Cl)cnc3N)c2)cc1S(C)(=O)=O` [Compound 126, (R)-N-(3-(1-((2-amino-5-chloropyridin-3-yl)oxy)ethyl)-phenyl)-4-methyl-3-(methylsulfonyl)benzamide], the inhibition at 0.5 µM with NFS-60 cells was ≥ 50%.
Regarding `Cc1ccc(C(=O)Nc2cccc([C@@H](C)Oc3cc(Cl)cnc3N)c2)cc1C` [Compound 132, (R)-N-(3-(1-((2-amino-5-chloropyridin-3-yl)oxy)ethyl)-phenyl)-3,4-dimethylbenzamide], at CSF-1R, the pIC50 is ≥ 7.30. In addition, the inhibition at 0.5 µM with NFS-60 cells is ≥ 50%.
As for `C[C@@H](Oc1cc(Cl)cnc1N)c1cccc(NC(=O)c2ccc3c(c2)S(=O)(=O)CC3)c1` [Compound 134, (R)-N-(3-(1-((2-amino-5-chloropyridin-3-yl)oxy)ethyl)-phenyl)-2,3-dihydrobenzo[b]thiophene-6-carboxamide 1,1-dioxide], the pIC50 at CSF-1R was ≥ 7.30. Also, the inhibition at 0.5 µM in the assay on NFS-60 cells is ≥ 50%.
`Cc1cc(C)cc(C(=O)Nc2cccc([C@@H](C)Oc3cc(Cl)cnc3N)c2)c1` [Compound 137, (R)-N-(3-(1-((2-amino-5-chloropyridin-3-yl)oxy)ethyl)-phenyl)-3,5-dimethylbenzamide]: the inhibition at 0.5 µM with NFS-60 cells is ≥ 50%.
Same read-out and setting: the result for `C[C@@H](Oc1cc(Cl)cnc1N)c1cccc(NC(=O)c2cc(C(F)(F)F)cc(S(C)(=O)=O)c2)c1` [Compound 150, (R)-N-(3-(1-((2-amino-5-chloropyridin-3-yl)oxy)ethyl)-phenyl)-3-(methylsulfonyl)-5-(trifluoromethyl)benzamide] reads ≥ 50%.
As to `C[C@@H](Oc1cc(-c2cnn(C)c2)cnc1N)c1cccc(NC(=O)c2cccc(S(C)(=O)=O)c2)c1` [Compound 168, (R)-N-(3-(1-((2-amino-5-(1-methyl-1H-pyrazol-4-yl)pyridin-3-yl)oxy)ethyl)phenyl)-3-(methylsulfonyl)benzamide], the inhibition at 0.5 µM in the assay on NFS-60 cells was ≥ 50%.
Same read-out and setting: the result for `C[C@@H](Oc1cc(-c2cnn(C)c2)cnc1N)c1cccc(NC(=O)c2cccc(C(F)(F)F)c2)c1` [Compound 169, (R)-N-(3-(1-((2-amino-5-(1-methyl-1H-pyrazol-4-yl)pyridin-3-yl)oxy)ethyl)phenyl)-3-(trifluoromethyl)benzamide] reads ≥ 50%.
As for `CSc1cccc(C(=O)Nc2cccc([C@@H](C)Oc3cc(-c4cnn(C)c4)cnc3N)c2)c1` [Compound 180, (R)-N-(3-(1-((2-amino-5-(1-methyl-1H-pyrazol-4-yl)pyridin-3-yl)oxy)ethyl)phenyl)-3-(methylthio)benzamide], on CSF-1R, the pIC50 is ≥ 7.30. The inhibition at 0.5 µM with NFS-60 cells was ≥ 50%.
With `CSc1ccc(C(=O)Nc2cccc([C@@H](C)Oc3cc(-c4cnn(C)c4)cnc3N)c2)cc1` [Compound 181, (R)-N-(3-(1-((2-amino-5-(1-methyl-1H-pyrazol-4-yl)pyridin-3-yl)oxy)ethyl)phenyl)-4-(methylthio)benzamide], the pIC50 at CSF-1R is ≥ 7.30. In addition, the inhibition at 0.5 µM in the assay with NFS-60 cells was ≥ 50%.
Regarding `C[C@@H](Oc1cc(-c2cccnc2)cnc1N)c1cccc(NC(=O)c2cccc(S(C)(=O)=O)c2)c1` [Compound 199, (R)-N-(3-(1-((6-amino-[3,3′-bipyridin]-5-yl)oxy)ethyl)phenyl)-3-(methylsulfonyl)benzamide], in the assay on NFS-60 cells, the inhibition at 0.5 µM was ≥ 50%.
Same read-out and setting: the result for `C[C@@H](Oc1cc(-c2cccnc2)cnc1N)c1cccc(NC(=O)c2cccc(C3CC3)c2)c1` [Compound 200, (R)-N-(3-(1-((6-amino-[3,3′-bipyridin]-5-yl)oxy)ethyl)phenyl)-3-cyclopropylbenzamide] reads ≥ 50%.
Take `C[C@@H](Oc1cc(-c2cccnc2)cnc1N)c1cccc(NC(=O)c2cccc(N(C)C)c2)c1` [Compound 205, (R)-N-(3-(1-((6-amino-[3,3′-bipyridin]-5-yl)oxy)ethyl)phenyl)-3-(dimethylamino)benzamide]: the pIC50 on CSF-1R was ≥ 7.30. Further, the inhibition at 0.5 µM in the assay on NFS-60 cells is ≥ 50%.
Taken in the same sequence, the figures for `Cc1ccc(C(=O)Nc2cccc([C@@H](C)Oc3cc(-c4cccnc4)cnc3N)c2)cc1N(C)C` [Compound 206, (R)-N-(3-(1-((6-amino-[3,3′-bipyridin]-5-yl)oxy)ethyl)phenyl)-3-(dimethylamino)-4-methylbenzamide] were ≥ 7.30 and ≥ 50%.
Take `C[C@@H](Oc1cc(-c2cnn(C3CC3)c2)cnc1N)c1cccc(NC(=O)c2cccc(N(C)C)c2)c1` [Compound 212, (R)-N-(3-(1-((2-amino-5-(1-cyclo-propyl-1H-pyrazol-4-yl)pyridin-3-yl)oxy)ethyl)phenyl)-3-(dimethyl-amino)benzamide]: the inhibition at 0.5 µM in the assay on NFS-60 cells is ≥ 50%.
In the case of `C[C@@H](Oc1cc(-c2cnn(C)c2)cnc1N)c1cccc(NC(=O)c2cccc([S+](C)[O-])c2)c1` (stereo partly drawn) [Compound 367, N-(3-((R)-1-((2-amino-5-(1-methyl-1H-pyrazol-4-yl)pyridin-3-yl)oxy)ethyl)phenyl)-3-(methylsulfinyl)benzamide], the pIC50 at CSF-1R was ≥ 7.30. The inhibition at 0.5 µM in the assay on NFS-60 cells was ≥ 50%.

(Values after patent publication US11767296B2, “Heteroaryl compounds as kinase inhibitor” (FUJIAN HAIXI PHARMACEUTICALS CO., LTD, priority 2018, dated 2023).)
